Measurements from article PMC5438989, “Protein Biochemistry and Expression Regulation of Cadmium/Zinc Pumping ATPases in the Hyperaccumulator Plants Arabidopsis halleri and Noccaea caerulescens” (Frontiers in Plant Science, 2017).

Molecular target: T1, NcHMA4 (=TcHMA4) (Noccaea caerulescens, UniProt Q69AX6)
T1 construct: 60-70 kD band on Western blot, so possibly processed; no added tag
T1 sequence (Q69AX6 1-1186): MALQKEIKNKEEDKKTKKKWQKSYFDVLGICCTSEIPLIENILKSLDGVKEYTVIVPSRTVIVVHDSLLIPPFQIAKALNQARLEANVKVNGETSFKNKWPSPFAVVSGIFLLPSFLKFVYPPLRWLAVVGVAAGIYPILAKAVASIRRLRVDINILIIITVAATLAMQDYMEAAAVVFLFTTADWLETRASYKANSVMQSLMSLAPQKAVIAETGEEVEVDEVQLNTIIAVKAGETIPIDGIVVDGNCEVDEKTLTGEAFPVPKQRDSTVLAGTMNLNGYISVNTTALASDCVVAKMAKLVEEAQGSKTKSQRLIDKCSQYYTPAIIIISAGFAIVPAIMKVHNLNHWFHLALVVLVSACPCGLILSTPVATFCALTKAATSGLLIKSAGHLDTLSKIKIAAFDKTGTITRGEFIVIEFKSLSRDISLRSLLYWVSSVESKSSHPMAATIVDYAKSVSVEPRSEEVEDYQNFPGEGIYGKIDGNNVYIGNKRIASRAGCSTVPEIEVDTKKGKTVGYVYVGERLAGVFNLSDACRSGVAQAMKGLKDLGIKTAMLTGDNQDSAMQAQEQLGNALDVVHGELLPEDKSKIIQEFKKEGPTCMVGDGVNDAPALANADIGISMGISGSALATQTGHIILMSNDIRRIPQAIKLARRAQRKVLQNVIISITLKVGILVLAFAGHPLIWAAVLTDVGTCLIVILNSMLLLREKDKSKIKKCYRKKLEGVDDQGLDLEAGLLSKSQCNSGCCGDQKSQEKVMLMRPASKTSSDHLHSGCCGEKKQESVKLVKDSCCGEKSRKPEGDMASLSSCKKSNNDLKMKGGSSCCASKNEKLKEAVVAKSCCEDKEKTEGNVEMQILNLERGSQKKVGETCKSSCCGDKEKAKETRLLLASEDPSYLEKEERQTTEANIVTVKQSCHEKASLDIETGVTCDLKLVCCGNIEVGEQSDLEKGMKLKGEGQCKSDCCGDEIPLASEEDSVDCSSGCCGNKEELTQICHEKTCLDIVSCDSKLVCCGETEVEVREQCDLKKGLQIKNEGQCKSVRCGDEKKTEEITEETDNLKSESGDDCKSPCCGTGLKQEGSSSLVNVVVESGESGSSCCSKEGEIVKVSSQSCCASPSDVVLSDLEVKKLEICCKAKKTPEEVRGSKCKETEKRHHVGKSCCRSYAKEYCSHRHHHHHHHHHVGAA
Test: ATPase assay by phosphate release; F5 electrochromic dye fluorescence
Type: biochemical
Conditions: Cd2+ or Zn2+ activated; dye assay: 5 mM ATP, protein in phosphatidylcholine vesicles, 20 °C

Structure (SMILES): Nc1ncnc2c1ncn2[C@@H]1O[C@H](COP(=O)(O)OP(=O)(O)OP(=O)(O)O)[C@@H](O)[C@H]1O [ATP]
- ATPase assay by phosphate release; F5 electrochromic dye fluorescence: Addition of ATP caused dropping of fluorescence when added to an assay containing active enzyme
